According to PubChem BioAssay (NCI):
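Each compound was tested at five concentrations against cells in 96-well plates for 48 hours. At the GI50, growth is halved. TGI denotes the concentration required for complete inhibition of growth.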

Assays:
Assay in all cases: NCI-60 cell line screen, 48 h
RXF 393 renal = test system: RXF 393 renal
SK-MEL-28 melanoma = test system: SK-MEL-28 melanoma
OVCAR-3 ovarian = test system: OVCAR-3 ovarian
SK-MEL-5 melanoma = test system: SK-MEL-5 melanoma
NCI-H460 lung = test system: NCI-H460 lung
IGROV1 ovarian = test system: IGROV1 ovarian
TK-10 renal = test system: TK-10 renal
SR leukemia = test system: SR leukemia
ACHN renal = test system: ACHN renal
MDA-MB-435 = test system: MDA-MB-435
RPMI-8226 leukemia = test system: RPMI-8226 leukemia
SK-OV-3 ovarian = test system: SK-OV-3 ovarian
MCF7 breast = test system: MCF7 breast
HL-60(TB) leukemia = test system: HL-60(TB) leukemia
K-562 leukemia = test system: K-562 leukemia
SW-620 colon = test system: SW-620 colon
SNB-19 CNS = test system: SNB-19 CNS
MDA-MB-468 breast = test system: MDA-MB-468 breast
OVCAR-5 ovarian = test system: OVCAR-5 ovarian
HCT-15 colon = test system: HCT-15 colon
OVCAR-4 ovarian = test system: OVCAR-4 ovarian
LOX IMVI melanoma = test system: LOX IMVI melanoma
HCC-2998 colon = test system: HCC-2998 colon
CCRF-CEM leukemia = test system: CCRF-CEM leukemia
KM12 colon = test system: KM12 colon
CAKI-1 renal = test system: CAKI-1 renal
NCI-H522 lung = test system: NCI-H522 lung
HS 578T breast = test system: HS 578T breast
HCT-116 colon = test system: HCT-116 colon
M14 melanoma = test system: M14 melanoma
SN12C renal = test system: SN12C renal
COLO 205 colon = test system: COLO 205 colon
UACC-62 melanoma = test system: UACC-62 melanoma
HOP-92 NSCLC = test system: HOP-92 NSCLC
BT-549 breast = test system: BT-549 breast
SF-539 CNS = test system: SF-539 CNS
SF-268 CNS = test system: SF-268 CNS
T-47D breast = test system: T-47D breast
HT29 colon = test system: HT29 colon
UACC-257 melanoma = test system: UACC-257 melanoma
786-0 renal = test system: 786-0 renal
HOP-62 NSCLC = test system: HOP-62 NSCLC
EKVX NSCLC = test system: EKVX NSCLC
OVCAR-8 ovarian = test system: OVCAR-8 ovarian
MOLT-4 leukemia = test system: MOLT-4 leukemia
DU-145 prostate = test system: DU-145 prostate
MALME-3M melanoma = test system: MALME-3M melanoma
NCI-H23 lung = test system: NCI-H23 lung
NCI/ADR-RES ovarian = test system: NCI/ADR-RES ovarian

COc1cc2cc(C(=O)N3C[C@@H](CCl)c4c3cc(OC(=O)N3CCN(C)[C@@H]5CSSC[C@H]53)c3ccccc43)[nH]c2c(OC)c1OC
GI50 (RXF 393 renal): 9.53 nM
TGI (RXF 393 renal): 20.1 nM
GI50 (SK-MEL-28 melanoma): 14.5 nM
TGI (SK-MEL-28 melanoma): 31 nM
GI50 (OVCAR-3 ovarian): 52.7 nM
TGI (OVCAR-3 ovarian): 578 nM
GI50 (SK-MEL-5 melanoma): 13.2 nM
TGI (SK-MEL-5 melanoma): 24.2 nM
GI50 (NCI-H460 lung): < 7.85 nM
TGI (NCI-H460 lung): 791 nM
GI50 (IGROV1 ovarian): 58.4 nM
TGI (IGROV1 ovarian): 266 nM
GI50 (TK-10 renal): 127 nM
TGI (TK-10 renal): 2400 nM
GI50 (SR leukemia): < 7.85 nM
TGI (SR leukemia): 61.3 nM
GI50 (ACHN renal): < 7.85 nM
TGI (ACHN renal): 29.3 nM
GI50 (MDA-MB-435): 27.4 nM
TGI (MDA-MB-435): 138 nM
GI50 (RPMI-8226 leukemia): 33.9 nM
TGI (RPMI-8226 leukemia): 458 nM
GI50 (SK-OV-3 ovarian): 12.4 nM
TGI (SK-OV-3 ovarian): 44.3 nM
GI50 (MCF7 breast): < 7.85 nM
TGI (MCF7 breast): 178 nM
GI50 (HL-60(TB) leukemia): < 7.85 nM
TGI (HL-60(TB) leukemia): 110 nM
GI50 (K-562 leukemia): 24.6 nM
TGI (K-562 leukemia): 78500 nM
GI50 (SW-620 colon): 58.1 nM
TGI (SW-620 colon): 78500 nM
GI50 (SNB-19 CNS): 16.4 nM
TGI (SNB-19 CNS): 1090 nM
GI50 (MDA-MB-468 breast): 11.5 nM
TGI (MDA-MB-468 breast): 30.8 nM
GI50 (OVCAR-5 ovarian): 36.3 nM
TGI (OVCAR-5 ovarian): 380 nM
GI50 (HCT-15 colon): 21.8 nM
TGI (HCT-15 colon): 554 nM
GI50 (OVCAR-4 ovarian): 160 nM
TGI (OVCAR-4 ovarian): 799 nM
GI50 (LOX IMVI melanoma): 12.2 nM
TGI (LOX IMVI melanoma): 43.5 nM
GI50 (HCC-2998 colon): 15.4 nM
TGI (HCC-2998 colon): 37.8 nM
GI50 (CCRF-CEM leukemia): 26.3 nM
TGI (CCRF-CEM leukemia): 2000 nM
GI50 (KM12 colon): 43.7 nM
TGI (KM12 colon): 3640 nM
GI50 (CAKI-1 renal): 27.3 nM
TGI (CAKI-1 renal): 586 nM
GI50 (NCI-H522 lung): 12.4 nM
TGI (NCI-H522 lung): 48 nM
GI50 (HS 578T breast): 159 nM
TGI (HS 578T breast): 668 nM
GI50 (HCT-116 colon): 18.1 nM
TGI (HCT-116 colon): 8510 nM
GI50 (M14 melanoma): 10.5 nM
TGI (M14 melanoma): 26.2 nM
GI50 (SN12C renal): 17.1 nM
TGI (SN12C renal): 831 nM
GI50 (COLO 205 colon): 49.2 nM
TGI (COLO 205 colon): 176 nM
GI50 (UACC-62 melanoma): 15.1 nM
TGI (UACC-62 melanoma): 87.9 nM
GI50 (HOP-92 NSCLC): 26.7 nM
TGI (HOP-92 NSCLC): 824 nM
GI50 (BT-549 breast): 15.4 nM
TGI (BT-549 breast): 55.9 nM
GI50 (SF-539 CNS): 9.97 nM
TGI (SF-539 CNS): 29.3 nM
GI50 (SF-268 CNS): 14.8 nM
TGI (SF-268 CNS): 1350 nM
GI50 (T-47D breast): 50.2 nM
TGI (T-47D breast): 553 nM
GI50 (HT29 colon): 34.1 nM
TGI (HT29 colon): 876 nM
GI50 (UACC-257 melanoma): 23.9 nM
TGI (UACC-257 melanoma): 78.4 nM
GI50 (786-0 renal): 16.3 nM
TGI (786-0 renal): 69.3 nM
GI50 (HOP-62 NSCLC): 12.3 nM
TGI (HOP-62 NSCLC): 65.4 nM
GI50 (EKVX NSCLC): 18.2 nM
TGI (EKVX NSCLC): 133 nM
GI50 (OVCAR-8 ovarian): 8.62 nM
TGI (OVCAR-8 ovarian): 68 nM
GI50 (MOLT-4 leukemia): < 7.85 nM
TGI (MOLT-4 leukemia): 215 nM
GI50 (DU-145 prostate): < 7.85 nM
TGI (DU-145 prostate): 9010 nM
GI50 (MALME-3M melanoma): 13.7 nM
TGI (MALME-3M melanoma): 33.3 nM
GI50 (NCI-H23 lung): < 7.85 nM
TGI (NCI-H23 lung): 13.8 nM
GI50 (NCI/ADR-RES ovarian): 11.1 nM
TGI (NCI/ADR-RES ovarian): 52.8 nM
